According to patent US10500166B2, “Methods for the treatment of erectile dysfunction using fispemifene” (QUATRX PHARMACEUTICALS, priority 2007, dated 2019):

Key:
Format in all cases: in vivo, human
LH (luteinizing hormone) = experiment: Example 3 study in hypogonadal men: serum LH (ITT); settings: for LH, Max / LH, Mean ± SD / LH, Median / LH, Min: Baseline (Visit 2)
Description: (§1) A randomized, double-blind, placebo controlled, parallel-group study of once-daily doses of fispemifene (100, 200, and 300 mg/day) given for 4 weeks was conducted in a population of hypogonadal men. Subjects were required to meet all of the following inclusion criteria at screening and prior to randomization to be eligible for the study:
(§2) There were 77 subjects total. The number of subjects randomized to the 100 mg fispemifene, 200 mg fispemifene, 300 mg fispemifene, and placebo arms were 21, 21, 19, and 16, respectively.
(§3) Subjects were randomly assigned to one of four treatment groups in a 1:1:1:1 ratio: • Treatment A (100 mg): fispemifene 100 mg+placebo+placebo; • Treatment B (200 mg): fispemifene 100 mg+fispemifene 100 mg+placebo; • Treatment C (300 mg): fispemifene 100 mg+fispemifene 100 mg+fispemifene 100 mg; and • Treatment D (Placebo): placebo+placebo+placebo.
(§4) Subjects took one dose (three capsules) of study medication once a day at home for 4 weeks. Capsules were to be taken in the morning immediately after breakfast, with the exception of the morning of the Week 4 visit. Capsules were not to be taken on the morning of the Week 4 visit because trough plasma levels of fispemifene were determined by a blood sample taken at this visit. Each subject was randomly assigned to treatment with one of the 3 different dose regimens of fispemifene or placebo vehicle. Each subject received a 4 week supply of study drug.
(§5) Blood samples were taken from the subjects within 1 week prior to dosing with study drug to establish baseline values; after 2 and 4 weeks of randomization; and 2 weeks after the last dose of study drug. Serum was prepared from those samples and used to determine the mean % change from baseline in total testosterone, free testosterone, SHBG (sex hormone-binding globulin), DHT (dihydrotestosterone), E2 (estradiol), LH (luteinizing hormone), FSH (follicle stimulating hormone), and inhibin B.
(§6) 3. Percent change from baseline in SHBG, DHT, E2, LH, FSH, inhibin B, and testosterone/E2 ratio at Weeks 2, 4, and 6.

E2 (estradiol) = experiment: Example 3 study in hypogonadal men: serum estradiol (ITT); settings: for Estradiol, Max / Estradiol, Mean ± SD / Estradiol, Median / Estradiol, Min: Baseline (Visit 2);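 for Estradiol, Max: estradiol concentrations in pg/mL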;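 for Estradiol, Mean ± SD: estradiol concentrations in pg/mL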;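 for Estradiol, Median: estradiol concentrations in pg/mL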;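 for Estradiol, Min: estradiol concentrations in pg/mL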
Description: as §1, §2, §3, §4, §5, §6

[1] = system: DHT (dihydrotestosterone); experiment: Example 3 study in hypogonadal men: serum dihydrotestosterone (ITT); settings: for Dihydrotestosterone, Max / Dihydrotestosterone, Mean ± SD / Dihydrotestosterone, Median / Dihydrotestosterone, Min: Baseline (Visit 2);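 for Dihydrotestosterone, Max: serum DHT concentration in pg/mL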;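 for Dihydrotestosterone, Mean ± SD: serum DHT concentration in pg/mL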;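 for Dihydrotestosterone, Median: serum DHT concentration in pg/mL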;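 for Dihydrotestosterone, Min: serum DHT concentration in pg/mL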
Description: as §1, §2, §3, §4, §5, §6

[2] = system: SHBG (sex hormone-binding globulin); experiment: Example 3 study in hypogonadal men: serum sex hormone binding globulin (ITT); settings: Baseline (Visit 2)
Description: as §1, §2, §3, §4, §5, §6

[3] = 100 mg/day, to Week 6 (2 weeks after discontinuation)
[4] = 200 mg/day, to Week 6 (2 weeks after discontinuation)
[5] = 300 mg/day, to Week 6 (2 weeks after discontinuation)
[6] = hypogonadal men, 100-300 mg/day for 4 weeks

## OCCOCCOc1ccc(/C(=C(/CCCl)c2ccccc2)c2ccccc2)cc1 [Fispemifene, (Z)-2-{2-[4-(4-Chloro-1,2-diphenylbut-1-enyl)phenoxy]ethoxy}ethanol]
LH (luteinizing hormone); 100 mg/day
  LH, Max: 13.50 IU/L
  LH, Mean ± SD: 4.43 ± 2.438 IU/L
  LH, Median: 4.10 IU/L
  LH, Min: 1.50 IU/L
LH (luteinizing hormone); 100 mg/day, to Week 2
  LH, % Change from Baseline, Max: 141%
  LH, % Change from Baseline, Mean ± SD: 0.39 ± 0.00496%
  LH, % Change from Baseline, Median: 29%
LH (luteinizing hormone); 100 mg/day, to Week 4
  LH, % Change from Baseline, Max: 203%
  LH, % Change from Baseline, Median: 49%
LH (luteinizing hormone); [3]
  LH, % Change from Baseline, Max: 100%
  LH, % Change from Baseline, Median: 0%
LH (luteinizing hormone); 200 mg/day
  LH, Max: 11.60 IU/L
  LH, Mean ± SD: 4.25 ± 2.028 IU/L
  LH, Median: 3.60 IU/L
  LH, Min: 1.00 IU/L
LH (luteinizing hormone); 200 mg/day, to Week 2
  LH, % Change from Baseline, Max: 123%
  LH, % Change from Baseline, Median: 54%
LH (luteinizing hormone); 200 mg/day, to Week 4
  LH, % Change from Baseline, Max: 137%
  LH, % Change from Baseline, Median: 52%
LH (luteinizing hormone); [4]
  LH, % Change from Baseline, Max: 80%
  LH, % Change from Baseline, Median: 19%
LH (luteinizing hormone); 300 mg/day
  LH, Max: 8.00 IU/L
  LH, Mean ± SD: 3.62 ± 1.506 IU/L
  LH, Median: 3.20 IU/L
  LH, Min: 1.90 IU/L
LH (luteinizing hormone); 300 mg/day, to Week 2
  LH, % Change from Baseline, Max: 134%
  LH, % Change from Baseline, Median: 63%
LH (luteinizing hormone); 300 mg/day, to Week 4
  LH, % Change from Baseline, Max: 178%
  LH, % Change from Baseline, Median: 42%
LH (luteinizing hormone); [5]
  LH, % Change from Baseline, Max: 84%
  LH, % Change from Baseline, Median: 19%
LH (luteinizing hormone); [6]
  effect on serum LH levels: increased
E2 (estradiol); 100 mg/day
  Estradiol, Max: 34.0 pg/mL
  Estradiol, Mean ± SD: 18.2 ± 6.54 pg/mL
  Estradiol, Median: 18.0 pg/mL
  Estradiol, Min: 10.0 pg/mL
E2 (estradiol); 100 mg/day, to Week 2
  Estradiol, % Change from Baseline, Max: 131%
  Estradiol, % Change from Baseline, Median: 32%
E2 (estradiol); 100 mg/day, to Week 4
  Estradiol, % Change from Baseline, Max: 110%
  Estradiol, % Change from Baseline, Median: 31%
E2 (estradiol); [3]
  Estradiol, % Change from Baseline, Max: 80%
  Estradiol, % Change from Baseline, Median: 13%
E2 (estradiol); 200 mg/day
  Estradiol, Max: 33.0 pg/mL
  Estradiol, Mean ± SD: 19.2 ± 6.23 pg/mL
  Estradiol, Median: 17.0 pg/mL
  Estradiol, Min: 11.0 pg/mL
E2 (estradiol); 200 mg/day, to Week 2
  Estradiol, % Change from Baseline, Max: 171%
  Estradiol, % Change from Baseline, Median: 23%
E2 (estradiol); 200 mg/day, to Week 4
  Estradiol, % Change from Baseline, Max: 150%
  Estradiol, % Change from Baseline, Median: 43%
E2 (estradiol); [4]
  Estradiol, % Change from Baseline, Max: 176%
  Estradiol, % Change from Baseline, Median: 23%
E2 (estradiol); 300 mg/day
  Estradiol, Max: 42.0 pg/mL
  Estradiol, Mean ± SD: 20.8 ± 7.15 pg/mL
  Estradiol, Median: 22.0 pg/mL
  Estradiol, Min: 10.0 pg/mL
E2 (estradiol); 300 mg/day, to Week 2
  Estradiol, % Change from Baseline, Max: 108%
  Estradiol, % Change from Baseline, Median: 33%
E2 (estradiol); 300 mg/day, to Week 4
  Estradiol, % Change from Baseline, Max: 100%
  Estradiol, % Change from Baseline, Median: 29%
E2 (estradiol); [5]
  Estradiol, % Change from Baseline, Max: 77%
  Estradiol, % Change from Baseline, Median: 0%
E2 (estradiol); [6]
  effect on serum estradiol levels: increased
[1]; 100 mg/day
  Dihydrotestosterone, Max: 385.0 pg/mL
  Dihydrotestosterone, Mean ± SD: 177.5 ± 88.58 pg/mL
  Dihydrotestosterone, Median: 180.0 pg/mL
  Dihydrotestosterone, Min: 50.0 pg/mL
[1]; 100 mg/day, to Week 2
  Dihydrotestosterone, % Change from Baseline, Max: 109%
  Dihydrotestosterone, % Change from Baseline, Median: 42%
  Dihydrotestosterone, % Change from Baseline, Min: 0%
[1]; 100 mg/day, to Week 4
  Dihydrotestosterone, % Change from Baseline, Max: 98%
  Dihydrotestosterone, % Change from Baseline, Median: 33%
[1]; [3]
  Dihydrotestosterone, % Change from Baseline, Max: 64%
  Dihydrotestosterone, % Change from Baseline, Median: 19%
[1]; 200 mg/day
  Dihydrotestosterone, Max: 398.0 pg/mL
  Dihydrotestosterone, Mean ± SD: 185.2 ± 95.37 pg/mL
  Dihydrotestosterone, Median: 168.0 pg/mL
  Dihydrotestosterone, Min: 67.0 pg/mL
[1]; 200 mg/day, to Week 2
  Dihydrotestosterone, % Change from Baseline, Max: 128%
  Dihydrotestosterone, % Change from Baseline, Median: 50%
[1]; 200 mg/day, to Week 4
  Dihydrotestosterone, % Change from Baseline, Max: 162%
  Dihydrotestosterone, % Change from Baseline, Median: 61%
[1]; [4]
  Dihydrotestosterone, % Change from Baseline, Max: 78%
  Dihydrotestosterone, % Change from Baseline, Median: 11%
[1]; 300 mg/day
  Dihydrotestosterone, Max: 294.0 pg/mL
  Dihydrotestosterone, Mean ± SD: 171.6 ± 76.42 pg/mL
  Dihydrotestosterone, Median: 179.0 pg/mL
  Dihydrotestosterone, Min: 50.0 pg/mL
[1]; 300 mg/day, to Week 2
  Dihydrotestosterone, % Change from Baseline, Max: 162%
  Dihydrotestosterone, % Change from Baseline, Median: 65%
  Dihydrotestosterone, % Change from Baseline, Min: 0%
[1]; 300 mg/day, to Week 4
  Dihydrotestosterone, % Change from Baseline, Max: 163%
  Dihydrotestosterone, % Change from Baseline, Median: 73%
  Dihydrotestosterone, % Change from Baseline, Min: 0%
[1]; [5]
  Dihydrotestosterone, % Change from Baseline, Max: 98%
  Dihydrotestosterone, % Change from Baseline, Median: 19%
[2]; 100 mg/day
  Sex Hormone Binding Globulin, Max: 35.0 nmol/L
  Sex Hormone Binding Globulin, Mean ± SD: 18.4 ± 6.96 nmol/L
  Sex Hormone Binding Globulin, Median: 17.0 nmol/L
  Sex Hormone Binding Globulin, Min: 8.5 nmol/L
[2]; 200 mg/day
  Sex Hormone Binding Globulin, Max: 51.0 nmol/L
  Sex Hormone Binding Globulin, Mean ± SD: 19.5 ± 11.12 nmol/L
  Sex Hormone Binding Globulin, Median: 18.0 nmol/L
  Sex Hormone Binding Globulin, Min: 3.7 nmol/L
[2]; 300 mg/day
  Sex Hormone Binding Globulin, Max: 48.0 nmol/L
  Sex Hormone Binding Globulin, Mean ± SD: 20.0 ± 10.28 nmol/L
  Sex Hormone Binding Globulin, Median: 19.0 nmol/L
  Sex Hormone Binding Globulin, Min: 5.6 nmol/L
